Results published in a melting point compilation (Tetko et al.; mined from patent text by program, amines drawn as free bases though some values may be those of a salt).

`Cc1c(C)c2c(c(C)c1NC(=O)c1ccc(C(=O)O)cc1)C(c1ccc(C(C)C)cc1)C(C)(C)O2` (stereo not drawn) showed a melting point of 258 to 261 °C. For `N#Cc1nn(-c2c(Cl)cc(C(F)(F)F)cc2Cl)c(N)c1C#CCO`, the melting point was 237 to 239 °C. `COc1cc([N+](=O)[O-])c(Cl)cc1NC(=O)C1CCNCC1` showed a melting point of 167 to 170 °C. `O=C(O)Cc1cc2c(c(-c3ccccc3)c1)NC(C(F)(F)F)CC2` (stereo not drawn) gave a melting point of 131 to 132 °C. For `CC(=O)OCC1CC(OC(C)=O)C(n2cc(C(Cl)=CI)c(=O)[nH]c2=O)O1` (stereo not drawn), the melting point was 87 to 89 °C. With `CCOCc1nc2c(N)nc3ccccc3c2n1CCOCCNC(=O)N1CCOCC1` the melting point was 178 to 181 °C. In the case of `CCOC(=O)c1cc(OC)c2c(OC(C)C)ccc(Br)c2c1`, the melting point is reported as 62 °C. `NNC(=O)Nc1nc2ccccc2[nH]1` showed a melting point of 320 to 322 °C. Compound `COC(=O)C(C)Oc1ccc(N(C)c2nnc3cc(Cl)ccc3n2)cc1` (stereo not drawn) has a melting point of 120 °C. In the case of `CC(C)(C)OC(=O)N1C[C@@H]([C@H](O)CO)CC1=O`, the melting point is reported as 92 to 94 °C. `O=CN1CCCN2c3ccccc3Cc3ccccc3C2C1` (stereo not drawn) gave a melting point of 146 to 148 °C. Work on `c1cnn(Cc2ccc3c(c2)-c2[nH]nc(-c4ccsc4)c2C3)n1` yielded a melting point of 217 to 219 °C. In the case of `O=c1[nH]c2cc(F)c([N+](=O)[O-])cc2o1`, the melting point is reported as 207 to 209 °C. Compound `COc1ccc(CCC2SC(=O)NC2=O)c2ccc(=O)n(C)c12` (stereo not drawn) has a melting point of 222 to 224 °C. In the case of `CC1CC(=O)NN=C1c1ccc(N2CCN(c3ncccn3)CC2)c(N)c1` (stereo not drawn), the melting point is reported as 220 to 221 °C. Compound `CCCCCCCCCCCCc1cc(CO)on1` has a melting point of 61 to 63 °C. `C=CCSc1ccc(OCc2ccccc2)nn1` showed a melting point of 56 to 58 °C. `CC(C)(C)c1cnnc(NN)n1` gave a melting point of 117 to 118 °C. With `N#Cc1cc(F)cc(-c2ccc3c(c2)C2(CCCC2)C(=O)N3)c1` the melting point was 235 to 237 °C. With `Cn1cc(C(N)=O)c(=O)c2sc(-c3ccccc3)cc21` the melting point was 266 to 268 °C. Compound `N#Cc1ccc(-c2ccc(C(=O)O)nc2)cc1` has a melting point greater than 260 °C. For `CC(C)(n1cncn1)C(O)(Cn1cncn1)c1ccc(Cl)cc1` (stereo not drawn), the melting point was 114 °C. Work on `O=C(Nc1nccs1)c1nc(-c2ccc(N3CCC(N4CCOCC4)CC3)cc2)[nH]c1-c1ccc(Cl)cc1` yielded a melting point of 165 to 170 °C. For `CCc1cc(-c2[nH]c3ccccc3c2C)cc(CC)c1O`, the melting point was 112 °C. Compound `Cc1ccc(C2CC(C(C)(C)C)=NN2c2ccc(C(=O)O)cc2)cc1` (stereo not drawn) has a melting point of 195 °C. With `CC(C)(C)OC(=O)NC(CC(=O)O)c1ccc(Cl)c(Cl)c1` (stereo not drawn) the melting point was 128 °C. Work on `CC(=O)CCCCCCC(CC(C)C(O)C(N)CO)c1cccs1` (stereo not drawn) yielded a melting point of 96 to 99 °C. `CN1CCn2nc(Nc3cc(Cl)nn(C)c3=O)cc2C1` gave a melting point of 175 to 176 °C. In the case of `CC(C)(C)C(=O)Nc1ccccc1CC1NCCc2ccccc21` (stereo not drawn), the melting point is reported as 168 °C. Compound `Cc1ccnc(C(=O)c2[nH]c3cc(Cl)c(Cl)cc3c2CC(=O)O)c1` has a melting point of 220 to 224 °C. For `O=C(Nc1ccc(Cl)nc1)c1ccccc1`, the melting point was 118 to 120 °C. Work on `CCC(C)[C@H](NC(=O)OCC1CCCC1)C(=O)N[C@@H](Cc1ccccc1)C(=O)CSCc1ccco1` (stereo partly drawn) yielded a melting point of 77 to 78 °C. Work on `CN(C)Cc1cc(C(=O)c2ccccc2)cc(C(C)(C)C)c1O` yielded a melting point of 129 °C. With `O=C(O)c1ccc2c(ccn2Cc2cccc([N+](=O)[O-])c2)c1` the melting point was 251 to 254 °C. With `COc1ccccc1-c1nc(C)c(-c2cccnc2)n1O` the melting point was 105 to 120 °C. `CCOC(=O)/C=C/c1ccc(O)c(Cl)c1` gave a melting point of 104 to 106 °C. Compound `CCCCCc1ccc(C(=O)NO)cc1` has a melting point of 89.9 to 90.1 °C. Compound `COc1ccc(CN(C)CCN(C)Cc2ccc(NC(=O)c3cccc4c(=O)c5cccc(OC)c5[nH]c34)cc2)cc1OC` has a melting point of 170 °C. For `COC(=O)C=Cc1cc(Cl)ccc1C(=O)OC`, the melting point was 87 to 89 °C. Work on `COc1cc(C(C)C)ccc1C1COc2c(C)c(C)c(Br)c(C)c21` (stereo not drawn) yielded a melting point of 102 to 103 °C. Work on `Cc1cc(-c2cc(C(F)(F)F)n3ncc(-c4cccnc4)c3n2)ccc1Cl` yielded a melting point of 193 °C. In the case of `O=C(c1cc2ccccc2o1)C12CC3CC(CC(C3)C1)C2`, the melting point is reported as 129 to 131 °C. With `O=C(O)c1cccc2ccoc12` the melting point was 159 to 161 °C. Compound `CCCCn1c(CO)nc2c(Cl)nc3ccccc3c21` has a melting point of 184 to 185 °C. Compound `OCc1snc(Cl)c1Cl` has a melting point of 94 to 95 °C. Work on `NC(=O)NCCNc1n[nH]c2ncnc(Nc3cccc(Cl)c3)c12` yielded a melting point of 212 to 214 °C. With `Cc1oc2c(-n3c(=O)cc(C(F)(F)F)n(C)c3=O)c(F)cc(Cl)c2c1C=O` the melting point was 148 to 150 °C. In the case of `CCCCn1nc2c(N)nc3ccccc3c2c1CCCS(=O)(=O)c1ccccc1`, the melting point is reported as 206 to 207 °C. `Cc1nc(-n2cnn(CC3CC3)c2=O)sc1C(=O)NCc1cc[nH]n1` showed a melting point of 167 to 168 °C. In the case of `COc1cc(C(=O)N2CC2C#N)cc(OC)c1OC` (stereo not drawn), the melting point is reported as 86 to 89 °C. For `Cc1cc(F)cc([N+](=O)[O-])c1N`, the melting point was 111 to 113 °C. Compound `CCOC(=O)c1cccc2c1Nc1ccc(C(=O)c3ccccc3)cc1N2Cc1ccccc1` has a melting point of 134 to 136 °C. For `CCS(=O)(=O)N(CCCCC(N)=O)C1CC(C)(C)Oc2ccc(C)cc21` (stereo not drawn), the melting point was 127 to 129 °C. `CC(CCC(=O)O)(c1ccc(OCc2ccc3ccccc3c2)cc1)c1ccc(OCc2ccc3ccccc3n2)cc1` (stereo not drawn) gave a melting point of 64 to 68 °C. In the case of `CCC/C=C\c1nc(Cl)c(CO)n1Cc1ccc(-c2ccccc2)c(C(=O)O)c1`, the melting point is reported as 148 to 150 °C. In the case of `CCN(CC)CCSC1=C(C#N)C(c2ccc(OC)cc2)(c2cccnc2)C(=O)N1` (stereo not drawn), the melting point is reported as 133 °C. In the case of `CCOC(=O)COC(=O)COc1ccc(OCC(=O)OCC)cc1NC(=O)c1ccc(OCCCCc2ccccc2)cc1`, the melting point is reported as 64 °C. `CCCc1cc(C(C)=O)c(O)cc1OCCCCC(=O)O` showed a melting point of 106 °C. Compound `Cc1csc(-c2cc(=O)n(C)c3ccc(C(=O)c4ccc(Cl)cc4)cc23)n1` has a melting point of 236 °C. For `CCCCCCCCCCCCCCCCCCOCC(COC(c1ccccc1)(c1ccccc1)c1ccccc1)OC(=O)N(C)C` (stereo not drawn), the melting point was 57.5 to 58 °C. In the case of `N#Cc1ccc2c(c1)CCC2=O`, the melting point is reported as 123 to 125 °C. `Cc1cc(OC(F)(F)C(Cl)Cl)c([N+](=O)[O-])cc1S(=O)(=O)C=CC#N` showed a melting point of 109 °C. `Cc1cc(C)nc(NC(=O)NS(=O)(=O)c2ccccc2OCCO)n1` gave a melting point of 183 to 190 °C. Work on `CN1CCN(CCC(=O)Nc2ccc3c(c2)C(=O)c2cc(NC(=O)CCN4CCN(C)CC4)ccc2C3=O)CC1` yielded a melting point of 284 °C. In the case of `O=C1CCCCC1C(=S)Nc1ccc(Br)cc1F` (stereo not drawn), the melting point is reported as 94 to 95 °C. With `CCCS(=O)c1sc(C(N)=O)c2c1-c1c(cnn1C)CC2` (stereo not drawn) the melting point was 194 to 195 °C. With `c1ccc(C(c2ccc3[nH]nnc3c2)n2ccnc2)cc1` (stereo not drawn) the melting point was 179 °C. `CCn1c(N)c(C(=O)NC)c(=O)c2ccc(C#CC(C)(C)OCC(N)=O)nc21` gave a melting point of 204 °C. For `O=C(COc1ccccc1)N[C@@H](Cc1ccc(OCCc2coc(-c3ccccc3)n2)cc1)C(=O)O`, the melting point was 94 to 97 °C. Work on `CCOC(=O)c1[nH]c2cc(Cl)cc(Cl)c2c1NCC(=O)c1ccccc1` yielded a melting point of 143 to 144 °C. In the case of `COc1ccc(-c2nc(Cl)nc(Cl)n2)cc1`, the melting point is reported as 131 to 134 °C. Compound `N#Cc1cc(C(=O)NNC(=O)c2occc2-c2ccncc2)ccc1O` has a melting point of 280 °C. Work on `CS(=O)(=O)c1ccc(C(CC2CCCC2)C(=O)Nc2nccs2)cc1C(F)(F)F` (stereo not drawn) yielded a melting point of 117 to 121 °C. In the case of `CC(=O)N1CCN(c2nc(N)ccc2[N+](=O)[O-])CC1`, the melting point is reported as 202 to 203 °C. With `CS(=O)(=O)Nc1ccc(C(=O)C2CCN(CCc3cn4ccccc4n3)CC2)cc1` the melting point was 190 to 191 °C. Work on `COc1c(C)cc(-c2nn(C(C)c3oc4ccccc4c(=O)c3-c3cccc(F)c3)c3ncnc(N)c23)cc1C` (stereo not drawn) yielded a melting point of 234 to 236 °C. Work on `CC(C)(C)c1cc(C=O)c2c(c1O)CCC2` yielded a melting point of 213 to 214 °C. `Cc1cc(O)c2c(ccc3nc(-c4ccco4)[nH]c32)n1` showed a melting point of 280 to 282 °C. For `CCOCc1nc2c(N)nc3c4c2n1[C@@H](C)CN4CCC3`, the melting point was 164 to 166 °C. `O[C@@H]1CCN(Cc2nc(-c3ccc4c(c3)Nc3ccccc3S4)cs2)C1` showed a melting point of 178 to 180 °C. `CC(=O)NC(C)CCC1CCC(n2cc3ccc(OCC4CC4)cc3n2)CC1` (stereo not drawn) gave a melting point of 139 to 140 °C. Compound `CSc1ccccc1C(=O)Nc1ccc(C(=O)N2Cc3ccccc3Cc3ccccc32)cc1` has a melting point of 222 to 225 °C. Compound `O=[N+]([O-])c1cccc2c1C[C@H]1CSC(=S)N1C2` has a melting point of 203 °C. `CN(C[C@H]1CC[C@H](NC(=O)OCc2ccccc2)CC1)C1CCOCC1` gave a melting point of 81 to 84 °C. For `CC(C)(C)c1cccc(S(=O)(=O)n2c(C(=O)c3ccc(C(=O)O)s3)cc3cc(C(F)(F)F)ccc32)c1`, the melting point was 217 °C. `Clc1ccc(CNc2cc(Cl)nc(Cl)n2)cc1` gave a melting point of 120 to 122 °C. With `N[C@@H]1C(=C2OCc3ccccc32)[C@@H]2C[C@H]1C(=C1OCc3ccccc31)[C@H]2N` the melting point was 108 °C. Compound `O=C(COc1ccc(Cl)cc1)N1CC2COCC2C1` (stereo not drawn) has a melting point of 110 °C. For `CN1CC(c2ccccc2)=C(O)C1=O`, the melting point was 245 to 250 °C. With `Nc1n[nH]c2cc(CN3CCN(Cc4cc5ccc(Cl)cc5s4)CC3=O)ccc12` the melting point was 246 to 248 °C. In the case of `CCCCCCCC(=O)SSC(=O)CCCCCCC`, the melting point is reported as 36 to 38 °C. With `CCOC(=O)c1ncn2c(C(F)F)cc(-c3ccc(C(F)(F)F)cc3)nc12` the melting point was 219 °C. `N#CC(C(=O)Nc1ccccc1)C(=O)c1ccc[nH]1` (stereo not drawn) gave a melting point of 207 to 209 °C. In the case of `NS(=O)(=O)c1sccc1C(F)=C(F)C(F)(F)F`, the melting point is reported as 108 to 111 °C. In the case of `CC(c1ccc2ncccc2c1)n1nnc2ccc(-c3ccc(C(N)=O)c(Cl)c3)nc21` (stereo not drawn), the melting point is reported as 140 to 143 °C. In the case of `Cc1[nH]c(=O)ccc1-c1ccc(S(C)=O)cc1` (stereo not drawn), the melting point is reported as 262 to 264 °C. Work on `CC(=O)OC1CCC2(C)C(CCC3C4CCC(C(C)=O)C4(C)CC(=O)C32Cl)C1` (stereo not drawn) yielded a melting point of 151 to 154 °C. For `COC(=O)C1CCC2C(CCC3C(C)(C)CCCC23C)C(=O)C1` (stereo not drawn), the melting point was 67 to 68 °C. Work on `COC(=O)c1ccc(OC)cc1I` yielded a melting point of 185 °C. In the case of `Cc1c(CCC(=O)O)c2cc(Br)ccc2n1Cc1ccc(Br)cc1`, the melting point is reported as 169 to 170 °C. `O=C(O)c1ccc2oc3ccccc3c2c1` gave a melting point of 172 to 173 °C. With `O=C(CCNC(=O)c1ccccc1)NCCSC(=O)c1ccccc1` the melting point was 154 to 155 °C. Compound `COCCNC(N)=Nc1nc(-c2cccc(CNC(=O)CN)c2)cs1` has a melting point of 66 to 67 °C.
